Assay results published in paper PMC9897788, “Design, synthesis and cytotoxic evaluation of novel bis-thiazole derivatives as preferential Pim1 kinase inhibitors with in vivo and in silico study” (Journal of Enzyme Inhibition and Medicinal Chemistry, 2023).

Assays:
Assay in all cases: NCI 60 cell one-dose screening (SRB)
Assay type in all cases: cell-based
[1] = tested on: HCC-2998; settings: Homo sapiens; HCC-2998, Colon Cancer; single dose 10 µM, 48 h; read-out: Percentage of cellular growth inhibition
Method: (§1) The 60 cancerous cell panel screening was performed following the Developmental Therapeutics Program (DTP) of the National Cancer Institute (NIH-NCI), USA. A single dose of 10 µM was used to perform the screening at 48 h incubation and the results were achieved as cancerous cell growth percentage relative to the no-drug control that was converted to an inhibition percentage by subtracting from 100.The cancerous cell lines were grown in RPMI 1640 medium containing 5% foetal bovine serum and 2 mM L-glutamine at 37 °C, 5% CO2, 95% air and 100% relative humidity for 24 h prior to addition of the tested compounds. After 24 h, two plates of each cell line were fixed in situ with TCA to represent a measurement of the cell population for each cell line at the time of drug addition (Tz). Compounds were dissolved in DMSO at 400-fold the desired final maximum test concentration and stored frozen prior to use. At the time of drug addition, an aliquot of frozen concentrate was thawed and diluted to twice the desired final maximum test concentration with complete medium containing 50 µg/mL gentamicin. Aliquots of 100 µL of the compounds dilution was added to the appropriate micro titre wells already containing 100 µL of medium, resulting in the required final drug concentrations of 10 µM. Following compounds addition, the plates were incubated for an additional 48 h at 37 °C, 5% CO2, 95% air, and 100% relative humidity. For adherent cells, the assay was terminated by the addition of cold TCA. Cells were fixed in situ by the gentle addition of 50 µL of cold 50% (w/v) TCA (final concentration, 10% TCA) and incubated for 60 min at 4 °C. The supernatant was discarded, and the plates were washed five times with tap water and air dried. Sulphorhodamine B (SRB) solution (100 µL) at 0.4% (w/v) in 1% acetic acid is added to each well, and plates are incubated for 10 min at room temperature. After staining, unbound dye was removed by washing five times with 1% acetic acid and the plates were air dried. Bound stain was subsequently solubilised with 10 mM trizma base, and the absorbance was read on an automated plate reader at a wavelength of 515 nm. For suspension cells, the methodology was the same except that the assay was terminated by fixing settled cells at the bottom of the wells by gently adding 50 µL of 80% TCA (final concentration, 16% TCA). Using the seven absorbance measurements [time zero, (Tz), control growth, I, and test growth in the presence of drug at the five concentration levels (Ti)], the percentage growth was calculated as: [(Ti−Tz)/(C−Tz)]×100 for concentrations for which Ti>/=Tz [(Ti−Tz)/Tz]×100 for concentrations for which Ti<Tz.

[2] = tested on: SK-OV-3; settings: Homo sapiens; SK-OV-3, Ovarian Cancer; single dose 10 µM, 48 h; read-out: Percentage of cellular growth inhibition
Method: as §1

[3] = tested on: MALME-3M; settings: Homo sapiens, Melanoma, single dose 10 µM, 48 h, read-out: Percentage of cellular growth inhibition
Method: as §1

[4] = tested on: NCI-H460; settings: Homo sapiens; NCI-H460, Non-Small Cell Lung Cancer; single dose 10 µM, 48 h; read-out: Percentage of cellular growth inhibition
Method: as §1

[5] = tested on: KM12; settings: Homo sapiens; KM12, Colon Cancer; single dose 10 µM, 48 h; read-out: Percentage of cellular growth inhibition
Method: as §1

[6] = tested on: UO-31; settings: Homo sapiens; UO-31, Renal Cancer; single dose 10 µM, 48 h; read-out: Percentage of cellular growth inhibition
Method: as §1

[7] = tested on: A549/ATCC; settings: Homo sapiens, Non-Small Cell Lung Cancer, single dose 10 µM, 48 h, read-out: Percentage of cellular growth inhibition
Method: as §1

[8] = tested on: HOP-62; settings: Homo sapiens; HOP-62, Non-Small Cell Lung Cancer; single dose 10 µM, 48 h; read-out: Percentage of cellular growth inhibition
Method: as §1

[9] = tested on: NCI/ADR-RES; settings: Homo sapiens, Ovarian Cancer, single dose 10 µM, 48 h, read-out: Percentage of cellular growth inhibition
Method: as §1

[10] = tested on: OVCAR-4; settings: Homo sapiens; OVCAR-4, Ovarian Cancer; single dose 10 µM, 48 h; read-out: Percentage of cellular growth inhibition
Method: as §1

[11] = tested on: OVCAR-8; settings: Homo sapiens; OVCAR-8, Ovarian Cancer; single dose 10 µM, 48 h; read-out: Percentage of cellular growth inhibition
Method: as §1

[12] = tested on: BT-549; settings: Homo sapiens; BT-549, Breast Cancer; single dose 10 µM, 48 h; read-out: Percentage of cellular growth inhibition
Method: as §1

[13] = tested on: EKVX; settings: Homo sapiens, Non-Small Cell Lung Cancer, single dose 10 µM, 48 h, read-out: Percentage of cellular growth inhibition
Method: as §1

[14] = tested on: K-562; settings: Homo sapiens, K562; K-562, Leukemia; single dose 10 µM, 48 h; read-out: Percentage of cellular growth inhibition
Method: as §1

[15] = tested on: SN12C; settings: Homo sapiens, Renal Cancer, single dose 10 µM, 48 h, read-out: Percentage of cellular growth inhibition
Method: as §1

[16] = tested on: M14; settings: Homo sapiens; M14, Melanoma; single dose 10 µM, 48 h; read-out: Percentage of cellular growth inhibition
Method: as §1

[17] = tested on: DU-145; settings: Homo sapiens; DU-145, Prostate Cancer; single dose 10 µM, 48 h; read-out: Percentage of cellular growth inhibition
Method: as §1

[18] = tested on: SF-268; settings: Homo sapiens; SF-268, CNS Cancer; single dose 10 µM, 48 h; read-out: Percentage of cellular growth inhibition
Method: as §1

[19] = tested on: U251; settings: Homo sapiens, U-251; U251, CNS Cancer; single dose 10 µM, 48 h; read-out: Percentage of cellular growth inhibition
Method: as §1

[20] = tested on: OVCAR-5; settings: Homo sapiens; OVCAR-5, Ovarian Cancer; single dose 10 µM, 48 h; read-out: Percentage of cellular growth inhibition
Method: as §1

[21] = tested on: HCT-116; settings: Homo sapiens; HCT-116, Colon Cancer; single dose 10 µM, 48 h; read-out: Percentage of cellular growth inhibition
Method: as §1

Structure (SMILES)	inhibition at 10 µM [1] [%]	inhibition at 10 µM [2] [%]	inhibition at 10 µM [3] [%]	inhibition at 10 µM [4] [%]	inhibition at 10 µM [5] [%]	inhibition at 10 µM [6] [%]	inhibition at 10 µM [7] [%]	inhibition at 10 µM [8] [%]	inhibition at 10 µM [9] [%]	inhibition at 10 µM [10] [%]	inhibition at 10 µM [11] [%]	inhibition at 10 µM [12] [%]	inhibition at 10 µM [13] [%]	inhibition at 10 µM [14] [%]	inhibition at 10 µM [15] [%]	inhibition at 10 µM [16] [%]	inhibition at 10 µM [17] [%]	inhibition at 10 µM [18] [%]	inhibition at 10 µM [19] [%]	inhibition at 10 µM [20] [%]	other results
Clc1ccc(-c2cs/c(=N\c3ccccc3)n2-c2cccc(-n3c(-c4ccc(Cl)cc4)cs/c3=N\c3ccccc3)c2)cc1 [8c, N,N’-(3,3’-(1,3-phenylene)bis(4–(4-chlorophenyl)thiazole-3(3H)-yl-2(3H)-ylidene))dianiline]	-1.7	-29.4	6.7	0.1	8.8	17.8	27.7	-3.3	0.5	12	7.9	-15.5	4.9	11.7	2.3	-10.7	19.2	12.1	11.1	-2.6	inhibition at 10 µM [21]: 15.7%
CCOC(=O)c1sc(Nc2cccc(Nc3nc(C)c(C(=O)OCC)s3)c2)nc1C [3c, Diethyl 2,2’-(1,3-phenylenebis(azanediyl))bis(4-methylthiazole-5-carboxylate)]	9.7	1.3	15.2	23.5	12.2	32.9	12	1.2	33.1	33.2	17.3	26.3	38.6	39.9	11.8	14	16.2	14.8	16.7	8	inhibition at 10 µM [21]: 43.5%
Fc1ccc(-c2csc(Nc3cccc(Nc4nc(-c5ccc(F)cc5)cs4)c3)n2)cc1 [6b, N^1,N^3-bis(4–(4-fluorophenyl)thiazol-2-yl)benzene-1,3-diamine]	64.8	13.2	17	59.6	62.4	68.7	37.2	27.3	36.3	44.3	32.1	36	60.2	64	52.8	33.2	32.3	42.1	37.3	34.5	inhibition at 10 µM [21]: 42.3%
Clc1ccc(-c2csc(Nc3cccc(Nc4nc(-c5ccc(Cl)cc5)cs4)c3)n2)cc1 [6c, N^1,N^3-bis(4–(4-chlorophenyl)thiazol-2-yl)benzene-1,3-diamine]	-10.9	8.3	-22.4	-2.1	-1.4	21.6	6.7	17.7	4.6	8.4	7.7	-6.1	12.4	5.8	1	29.3	-1.8	22.6	2.2	9.6	inhibition at 10 µM [21]: 38.5%
S=C(Nc1ccccc1)Nc1cccc(NC(=S)Nc2ccccc2)c1 [compound 7, 1,1′-(1,3-phenylene)bis(3-phenylthiourea)]	-11.5	-29	10.8	-16.5	1	14.6	0.1	-18.9	-9.3	-6.6	4	-13.2	2.5	9.7	4.5	-19.6	-10.2	3.3	-1.4	-4.9	inhibition at 10 µM [21]: -11.8%
Fc1ccc(-c2cs/c(=N\c3ccccc3)n2-c2cccc(-n3c(-c4ccc(F)cc4)cs/c3=N\c3ccccc3)c2)cc1 [8b, N,N’-(3,3’-(1,3-phenylene)bis(4–(4-fluorophenyl)thiazole-3(3H)-yl-2(3H)-ylidene))dianiline]	12.1	-15.4	7.5	37.5	12.8	26.3	19.8	-4.6	10.2	34.7	12.4	-4.1	19.5	28.8	7.5	0.4	17.1	8.7	28.1	14	inhibition at 10 µM [21]: 16.7%
Cc1csc(Nc2cccc(Nc3nc(C)cs3)c2)n1 [3a, N^1,N^3-bis(4-methylthiazol-2-yl)benzene-1,3-diamine]	-4.2	10.7	-18.3	1.6	5.2	15.7	-3.9	3.5	20.1	11.8	21.2	-24.4	14.7	17.1	13.8	-7.3	10.2	1.4	3.5	7.1	inhibition at 10 µM [21]: 4.8%
